From US20220411362A1, “DITERPENOID COMPOUNDS THAT ACT ON PROTEIN KINASE C (PKC)” (K-Gen, Inc., priority 2019, published 2022)

Columns and labels:
C1b domain of human PKCα = target: T1, C1b domain of human PKCα (Homo sapiens, UniProt P17252); assay: biochemical; format: binding; details: Ki PKCα, 3H-PDBu competition
T1 construct: Genes encoding C1b domains of human PKCα, δ, ε, θ, and PKD1 (PKCμ) were synthesized; made in house; host or cells: E. coli BL21(DE3)
Summary of the method: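 Competitive binding against 3H-PDBu tracer used recombinant GST-C1b fusion protein expressed in E. coli. Incubation ran 10 min at 37°C with shaking, then 20 min on ice, followed by filtration and scintillation counting of trapped 3H-PDBu. Affinity was derived using each protein preparation's experimentally determined Kd for 3H-PDBu.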

[1] = test system: Panc2.13 (Pancreatic) cell line; assay: Proliferation of Panc2.13; format: cell-based; details: for ratio of (IC50 of K01)/(IC50 of compound), Panc2.13: value in parenthesis; for IC50: read-out: IC50 in μM Panc2.13 (Pancreatic)
Procedure: (§1) The diterpenoid compounds were tested in A549, a non-small cell lung cancer cell line harboring a K-Ras activating mutation. Briefly, A549 cells at a density of 1,000 cells/well were seeded in 96-well plates and incubated at 37° C. for 24 hours. A series of different concentrations of compound stocks (500×) were prepared by 3-fold serial dilution in DMSO. These compounds were further diluted in culture media and then added to cells so that the final DMSO concentration was not exceeding 0.25%. After 96 hours of incubation, 50 μL of CellTiter Glo reagent (Promega) was added to each well and luminescence was measured after 10 minutes using EnVision (PerkinElmer). Luminescence from cells treated with DMSO alone was set as Max and % of inhibition was calculated as follows: Inhibition %=(Max−Sample value)/Max×100. Data was analyzed using XL-fit software (ID Business Solutions Ltd.) and IC50, relative IC50, and % of top inhibition was calculated. Some of the compounds in this disclosure were very potent in blocking proliferation of A549 lung cancer cells at low nM range. In addition, potency of inhibiting A549 proliferation correlated well with its binding affinity to PKCs for this series of compounds. In other words, higher affinity binders had stronger inhibitory effects on A549 proliferation. This further support the notion that activation, rather than inhibition, of certain PKC isoforms is required to block proliferation of cancer cells, some of which may harbor K-Ras mutations. This is in sharp contrast to previous literature and common belief that inhibition of PKC is necessary to block cancer cell growth (Kang, 2014, New Journal of Science, 2014:1-36). Data presented here is in agreement with recent findings that many loss-of-function but not gain-of-function mutations of PKC isoforms have been identified in many human cancers (Antal et al., 2015, Cell, 160:489-502).
(§2) The compounds in this disclosure were tested for their potency in blocking proliferation of a few other cancer cells lines, including K-Ras mutant pancreatic cell lines Panc2.13 and KP-4, leukemia cell line HL-60, and lymphoma cell lines Namalwa and Mino. Similar procedures as in Example 67 were followed. Initial cell numbers seeded in 96-well plates were different for different cell lines: 3000 cells/well for Panc2.13; 800-1000 cells/well for KP-4; 5000 cells/well for HL-60; 5000-10000 cells/well for Namalwa and Mino. A ratio ratio of (IC50 of K01)/(IC50 of compound) (data in parenthesis in Table 5) was used to normalize the compound potency from different assay batches to a common comparator […].

[2] = test system: Namalwa (Lymphoma) cell line; assay: Proliferation of Namalwa; format: cell-based; details: for ratio of (IC50 of K01)/(IC50 of compound), Namalwa: value in parenthesis; for IC50: read-out: IC50 in μM Namalwa (Lymphoma)
Procedure: as §1, §2

[3] = test system: KP-4 (Pancreatic) cell line; assay: Proliferation of KP-4; format: cell-based; details: Homo sapiens, KP-4, read-out: IC50 in μM KP-4 (Pancreatic)
Procedure: as §1, §2

C1b domain of human PKCδ = target: T2, C1b domain of human PKCδ (Homo sapiens, UniProt Q05655); assay: Competitive 3H-PDBu binding to C1b domain of PKCδ; details: Ki PKCδ, 3H-PDBu competition
T2 construct: Genes encoding C1b domains of human PKCα, δ, ε, θ, and PKD1 (PKCμ) were synthesized; made in house; host or cells: E. coli BL21(DE3)
T2 sequence (Q05655 230-280 limits assumed): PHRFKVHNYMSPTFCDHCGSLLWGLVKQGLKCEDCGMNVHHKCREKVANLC
Summary of the method: (§3)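 First, the E. coli-produced human GST-C1b protein was mixed with compound and 3H-PDBu and shaken 10 min at 37° C. Next, the plate sat on ice 20 min before filtration and scintillation counting of bound tracer. Finally, IC50 fits were transformed into Ki values.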

PANC1 cells = assay: Sphere formation assay (cancer stemness); format: cell-based; details: Homo sapiens, PANC-1, read-out: concentration exhibiting at least 50% inhibition on the sphere forming efficiency
Procedure: A group of diterpenoid compounds of the present disclosure were tested to assess their effects on blocking formation of spheres from cancer cell lines such as PANC1, a K-Ras mutant pancreatic cell line. Briefly, PANC1 cells were harvested, re-suspended as single cell suspensions, counted and seeded into Ultra Low Attachment Culture 96-well plate (Corning, Cat #3474) at 100 cells/well in 100 μl of complete media (with 10% FBS) containing 2% Matrigel (Corning, Cat #354234) and DMSO or compounds. Six replicates per condition were seeded. The seeded cells were placed in the 37° C. tissue culture incubator. 10 μl of low serum containing media (with 0.1% FBS) was added to each well every week. Spheres formed after 3-4 weeks were counted. Sphere forming efficiency was expressed as percentage of # of spheres/# of cells seeded.

[4] = test system: HL-60 (Leukemia) cell line; assay: Proliferation of HL-60; format: cell-based; details: for ratio of (IC50 of K01)/(IC50 of compound), HL-60: value in parenthesis; for IC50: Homo sapiens, HL-60, read-out: IC50 in μM HL-60 (Leukemia)
Procedure: as §1, §2

[5] = test system: Mino (Lymphoma) cell line; assay: Proliferation of Mino; format: cell-based; details: for IC50: Homo sapiens, MINO, read-out: IC50 in μM Mino (Lymphoma); for ratio of (IC50 of K01)/(IC50 of compound), Mino: value in parenthesis
Procedure: as §1, §2

[6] = target: T3, C1b domain of human PKD1 (PKCμ) (Homo sapiens, UniProt Q15139); assay: biochemical; format: binding
T3 construct: Genes encoding C1b domains of human PKCα, δ, ε, θ, and PKD1 (PKCμ) were synthesized; made in house; host or cells: E. coli BL21(DE3)
T3 sequence (Q15139 270-320 limits assumed): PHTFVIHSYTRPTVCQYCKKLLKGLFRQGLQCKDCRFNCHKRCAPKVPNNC
Summary of the method: as §3

C1b domain of human PKCθ = target: T4, C1b domain of human PKCθ (Homo sapiens, UniProt Q04759); assay: Competitive 3H-PDBu binding to C1b domain of PKCθ
T4 construct: Genes encoding C1b domains of human PKCα, δ, ε, θ, and PKD1 (PKCμ) were synthesized; made in house; host or cells: E. coli BL21(DE3)
T4 sequence (Q04759 231-281 limits assumed): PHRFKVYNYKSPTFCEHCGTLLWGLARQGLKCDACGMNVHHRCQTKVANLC
Summary of the method: as §3

[7] = test system: A549 non-small cell lung cancer cell line; assay: Proliferation of A549 (CellTiter Glo); format: cell-based; details: Homo sapiens, A549, 96 h, read-out: IC50 μM (A549 Cell Line)
Summary of the method: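 A549 cells (K-Ras mutant) seeded 1,000/well, 24 h at 37° C, then treated with 3-fold serial dilutions (final DMSO ≤0.25%) for 96 h. Viability by CellTiter Glo luminescence; % inhibition vs DMSO-only Max, curve-fit to give IC50, relative IC50 and % top inhibition.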

C1b domain of human PKCε = target: T5, C1b domain of human PKCε (Homo sapiens, UniProt Q02156); assay: Competitive 3H-PDBu binding to C1b domain of PKCε
T5 construct: Genes encoding C1b domains of human PKCα, δ, ε, θ, and PKD1 (PKCμ) were synthesized; made in house; host or cells: E. coli BL21(DE3)
T5 sequence (Q02156 242-292 limits assumed): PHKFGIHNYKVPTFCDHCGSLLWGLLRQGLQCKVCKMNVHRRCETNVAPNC
Summary of the method: as §3

In the case of CC1=C[C@H]2[C@@]3(O)[C@H](C)C[C@]4(OC(=O)C(C)(C)C)[C@H]([C@@H]3C=C(CO)C[C@]2(O)C1=O)C4(C)C [Compound K101-C1308], the Ki (C1b domain of human PKCα) is reported as 800 to 1000 nM, the “ratio of (IC50 of K01)/(IC50 of compound), Panc2.13” value [1] is reported as 6.29 and the IC50 [1] is reported as 0.1 to 0.2 µM. The “ratio of (IC50 of K01)/(IC50 of compound), Namalwa” value [2] was 1.38, the IC50 [2] was 0.03 to 0.06 µM and the IC50 [3] was 0.1 to 0.2 µM. For the same molecule, the Ki (C1b domain of human PKCδ) was 1 to 30 nM, the IC50 (PANC1 cells) was at most 150 nM and the “ratio of (IC50 of K01)/(IC50 of compound), HL-60” value [4] was 5.29. For the same molecule, the IC50 [4] was 0.06 to 0.1 µM, the IC50 [5] was 0.01 to 0.03 µM and the “ratio of (IC50 of K01)/(IC50 of compound), Mino” value [5] was 6.82. It also gave a Ki [6] of 5 to 10 nM, a Ki (C1b domain of human PKCθ) of 30 to 60 nM and an IC50 [7] of 0.06 to 0.1 µM. The Ki (C1b domain of human PKCε) was 1 to 30 nM.
In the case of CC1=C[C@H]2[C@@]3(O)[C@H](C)C[C@]4(OC(=O)[C@@H](N)C(C)(C)C)[C@H]([C@@H]3C=C(CO)C[C@]2(O)C1=O)C4(C)C [Compound K101-C1346], the Ki (C1b domain of human PKCα) is reported as 200 to 400 nM, the Ki (C1b domain of human PKCδ) is reported as 1 to 30 nM and the IC50 (PANC1 cells) is reported as at most 1500 nM. The Ki [6] was 5 to 10 nM, the Ki (C1b domain of human PKCθ) was 30 to 60 nM and the IC50 [7] was 0.2 to 0.6 µM.
In the case of CC1=C[C@H]2[C@@]3(O)[C@H](C)C[C@]4(OC(=O)[C@@H](N)CCC5CCCCC5)[C@H]([C@@H]3C=C(CO)C[C@]2(O)C1=O)C4(C)C [Compound K101-C1345], the Ki (C1b domain of human PKCα) is reported as 30 to 60 nM, the “ratio of (IC50 of K01)/(IC50 of compound), Panc2.13” value [1] is reported as 20.5 and the IC50 [1] is reported as 0.03 to 0.06 µM. For the same molecule, the “ratio of (IC50 of K01)/(IC50 of compound), Namalwa” value [2] was 7.42, the IC50 [2] was 0.001 to 0.01 µM and the IC50 [3] was 0.01 to 0.03 µM. The Ki (C1b domain of human PKCδ) was under 5 nM, the IC50 (PANC1 cells) was at most 150 nM and the “ratio of (IC50 of K01)/(IC50 of compound), HL-60” value [4] was 27.7. For the same molecule, the IC50 [4] was 0.01 to 0.03 µM, the IC50 [5] was 0.001 to 0.01 µM and the “ratio of (IC50 of K01)/(IC50 of compound), Mino” value [5] was 33. The Ki [6] was under 5 nM, the Ki (C1b domain of human PKCθ) was 1 to 30 nM and the IC50 [7] was 0.01 to 0.03 µM. The Ki (C1b domain of human PKCε) was 1 to 30 nM.
